Results as given in US5739131A, “Benzene derivatives and pharmaceutical composition” (Kureha Chemical Industry Co., Ltd., priority 1994, dated 1998).
pIC50: −log10 of the molar value.

Experiments:
renal dysfunction = details: in vivo; cited from earlier work
[1] = test system: kidney disease model rats; experiment: Renal function indicatory value (action to kidney diseases); type: in vivo, Sprague-Dawley female rats; details: 20 mg/kg/day per os, two weeks; for Creatinine clearance: 24 hours urine, control 0.20; for Creatinine / Urea nitrogen: serum; for Creatinine: control 2.0; for Urea nitrogen: control 100
Protocol: The kidney disease model rats were prepared as in Example 115. Twenty-five groups (8 rats per group) were sleeked in a manner so that there were no major differences between each group in the serum creatinine value and the urea nitrogen value indicating renal function. The rats in each group were allowed to freely take up feed and water. […] To the rats in the control group, only water was forcedly administered per os every day. After two weeks, 0.2 ml of blood was collected from the carotid artery of the rat under anesthesia, and centrifuged to obtain serum. Using 25 μl of the serum, serum creatinine (Scr) was measured by a creatinine analytical instrument (Beckman). Using 10 μl of the serum, urea nitrogen (BUN) was measured by a BUN analytical instrument (Beckman). Creatinine clearance was evaluated as follows:
After serum creatinine measurement, rats were placed in urinary metabolic cages for 24 hours to collect urine. Urinary creatine concentration (Ucr) was measured by a creatinine analytical instrument, and total volume of urination (Uvol) was also measured. Creatinine clearance (CCr) was calculated by the following formula: [formula]

mice = experiment: Acute toxicity, single oral dose; type: in vivo; details: mouse, in vivo, po, 500 mg/kg
Protocol: Five-week-old ICR female mice (5 mice per group) were bred for acclimation for a week. Then, the compounds of the present invention were dissolved or dispersed in an aqueous solution of 0.5% methylcellulose, and orally administered to the mice in a single dosage (500 mg/kg).

[2] = target: T1, angiotensin II receptor subtype 2 (AT2) (Bos taurus, UniProt G5E6F7); experiment: Binding assay, angiotensin II receptor subtype 2 (AT2); parameters: species or system bovine (cerebellar cortex); details: 100 μM, AT2, bovine cerebellar cortex, 37° C. 1 hour; read-out: Binding inhibition % in 100 μm, AT2
T1 construct: receptor: from cerebellar cortex in bovine; from tissue; host or cells: bovine cerebellar cortex
T1 sequence (G5E6F7 1-362): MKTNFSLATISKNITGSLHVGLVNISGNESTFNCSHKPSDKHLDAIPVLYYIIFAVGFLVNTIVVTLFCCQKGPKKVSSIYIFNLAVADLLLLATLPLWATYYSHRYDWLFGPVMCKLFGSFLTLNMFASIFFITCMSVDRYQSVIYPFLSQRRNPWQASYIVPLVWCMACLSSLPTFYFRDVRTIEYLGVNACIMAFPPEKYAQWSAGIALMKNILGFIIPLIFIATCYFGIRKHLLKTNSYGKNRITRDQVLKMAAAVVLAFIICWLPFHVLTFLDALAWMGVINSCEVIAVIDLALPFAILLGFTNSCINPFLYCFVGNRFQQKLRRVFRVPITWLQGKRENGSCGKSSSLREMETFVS
Protocol: (§1) In this Example, the affinity to the angiotensin II receptor subtype 1 or subtype 2 was evaluated by a binding assay in accordance with the method described in Biochem. Pharmacol., 33, 4057-4062 (1984).
(§2) Specifically, the measurement of the total binding in the presence of each drug was performed as follows:
(§3) A mixture (final volume=0.25 ml) of a drug in a given concentration (the drug was dissolved in DMSO, and diluted to a double volume with a buffer attached to a drug discovery system to prepare sample for the assay; 0.025 ml), a tracer (0.025 ml), and receptors (0.2 ml) was incubated [in the case of the angiotensin II receptor subtype 1 (AT1), at room temperature for 3 hours, and in the case of the subtype 2 (AT2), at 37° C. for 1 hour]. Then, the reaction mixture was filtered with suction (GF/C filter was used in AT1, and GF/B filter was used in AT2). The filter papers after filtration with suction (the tracer bound to the receptors) were counted by a γ-well counter (ARC-500, Aloka). The non-specific bindings were measured by repeating the above method, except that a large excess amount of a displacer was added. The specific binding of the drug in the given concentration was calculated by subtracting the non-specific binding from the total binding, respectively.
(§4) In AT1 and AT2, the percentages to inhibit the bindings of radioactive ligands (tracer) to receptors by the drugs to be tested (IC50 value of concentration to show 50% inhibition, or binding inhibition % in 100 μM) were measured, using the drugs to be tested and control drugs in the given concentration.
receptor: from cerebellar cortex in bovine
tracer: ^125 ITyr^4angiotensin II
control drug: angiotensin II (human)
(displacer): angiotensin II (human)

[3] = test system: kidney disease model rats; experiment: Action to survival time of kidney diseased animals; type: in vivo, Sprague-Dawley female rats; details: 20 mg/kg/day per os, observation eight weeks (upper limit); control 5.0
Protocol: The kidney disease model rats were prepared as in Example 115. Twenty-five groups (8 rats per group) were prepared in a manner so that there was no major difference between the groups in the serum creatinine value and the urea nitrogen value indicating renal function. The rats in each group were allowed to freely take up feed and water. […] To the rats in the control group, only water was forcedly administered per os every day. If kidney diseases are aggravated, the rat will die of uremia. Thus, the survival time was observed as comprehensive indication of the improvement effect on the kidney diseases. The observation period was eight weeks. Thus if all rats survived, the average survival time is eight weeks and it is an upper limit.

[4] = test system: kidney disease model rats; experiment: Action to depress blood pressure (tail cuff method); type: in vivo, Sprague-Dawley female rats; details: 20 mg/kg per os; for Blood pressure: systolic, average, two days from administration, control (water) 203
Protocol: The compounds of the present invention and the reference substance were forcedly administered per os to kidney disease model rats, and the action to depress blood pressure was observed. The kidney disease model rats were prepared by ligature of branches of renal artery in accordance with the conventional method, that is, the left hilum renalis of Sprague-Dawley female rats was exposed under anesthesia, and one of four secondary branches of renal artery was left unligated, while the remaining three branches were ligated, respectively. After a week, the hilum renalis (artery, vein, and ureter) of the right kidney were further ligated to thereby prepare the rats whose renal function was lowered to approximately 1/8 of the normal function. Each group consisted of eight rats. The drugs to be tested (20 mg/kg) were administered to each administering group, and only water was administered to control group. After two days from the administration, the systolic blood pressure was measured by the tail cuff method using a blood pressure measuring apparatus (UR5000; Ueda).

[5] = target: T2, angiotensin II receptor subtype 1 (AT1) (Oryctolagus cuniculus, UniProt P34976); experiment: Binding assay, angiotensin II receptor subtype 1 (AT1); parameters: species or system rabbit (adrenal glands); details: for inhibition at 100 µM: AT1, rabbit adrenal glands
T2 construct: receptor: from adrenal glands in rabbits; from tissue; host or cells: rabbit adrenal glands
T2 sequence (P34976 1-359): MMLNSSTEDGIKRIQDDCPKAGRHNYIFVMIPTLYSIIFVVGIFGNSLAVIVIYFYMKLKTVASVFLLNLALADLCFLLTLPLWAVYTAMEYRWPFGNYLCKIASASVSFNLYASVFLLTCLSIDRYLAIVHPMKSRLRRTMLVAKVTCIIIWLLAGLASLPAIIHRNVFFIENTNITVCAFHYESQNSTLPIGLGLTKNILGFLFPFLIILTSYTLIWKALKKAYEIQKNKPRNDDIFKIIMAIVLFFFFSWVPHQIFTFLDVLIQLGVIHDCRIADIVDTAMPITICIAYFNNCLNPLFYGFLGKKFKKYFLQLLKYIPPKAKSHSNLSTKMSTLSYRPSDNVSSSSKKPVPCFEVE
Protocol: as §1, §2, §3, §4

hyperlipemia model rats = details: cited from earlier work

SMILES | Blood pressure (renal dysfunction) | progress of renal dysfunction (renal dysfunction) | Creatinine clearance [1] [mL/min] | Creatinine [1] [mg/dL] | Urea nitrogen [1] [mg/dL] | Number of deaths/number of survivals (mice) | inhibition at 100 µM [2] [%] | Average survival time [3] [weeks] | Blood pressure [4] [mmHg] | inhibition at 100 µM [5] [%] | pIC50 ([5]; tracer 3H angiotensin II, room temperature 3 hours, read-out: IC50 AT1) | Blood pressure (hyperlipemia model rats; large dose) | effect to blood pressure (hyperlipemia model rats; lower dose) | kidney disease improvement (hyperlipemia model rats; lower dose) | action to depress the blood pressure ([4]; in comparison with control group)
CCOC(=O)[C@H](CCc1ccccc1)N[C@@H](C)C(=O)N1CCC[C@H]1C(=O)O [enalapril] | blood pressure is lowered | the progress of renal dysfunction is improved | – | – | – | – | – | – | – | – | – | – | – | – | –
C[C@H](CS)C(=O)N1CCC[C@H]1C(=O)O [captoril] | blood pressure is lowered | the progress of renal dysfunction is improved | – | – | – | – | – | – | – | – | – | – | – | – | –
CCCCCN(C)c1c(NCc2ccc(-c3ccccc3-c3nn[nH]n3)cc2)cc(C(=O)N2CCOCC2)cc1NC(=O)C(c1ccccc1)c1ccccc1 [Compound No. 593, 4-(N-n-amyl-N-methyl)amino-5-(diphenylacetamido)-3-[[2'-(1H-tetrazol-5-yl)biphenyl-4-yl]methylamino]benzoic acid morpholide] | – | – | 0.31 | 1.6 | 80 | 0/5 | 0 | 7.1 | 200 | 36 | – | – | – | – | –
CCCNC(=O)N(Cc1ccc(C(=O)O)cc1)c1cc(C(=O)N2CCOCC2)ccc1N(C)C [Compound No. 225] | – | – | 0.25 | 1.8 | 73 | 0/5 | 0 | 7.0 | 195 | 4 | – | – | – | – | –
CCCCC(=O)N(Cc1ccc(-c2ccccc2-c2nn[nH]n2)cc1)c1cc(C(=O)N2CCOCC2)ccc1NC(C)=O [Compound No. 592, 4-acetamido-3-N-[[[2'-(1H-tetrazol-5-yl)biphenyl-4-yl]methyl]valeramido]benzoic acid morpholide] | – | – | 0.33 | 1.7 | 76 | 0/5 | 0 | 7.0 | 202 | – | 5.31 | – | – | – | –
CCCCC(=O)N(Cc1ccc(-c2ccccc2-c2nn[nH]n2)cc1)c1cc(C(=O)N2CCOCC2)ccc1N(C)C [Compound No. 591, 4-dimethylamino-3-N-[2'-[(1H-tetrazol-5-yl)biphenyl-4-yl]methyl]valeramidobenzoic acid morpholide] | – | – | – | 1.6 | 76 | 0/5 | 0 | 7.3 | 199 | 35 | – | – | – | – | –
CCCCc1nc(Cl)c(CO)n1Cc1ccc(-c2ccccc2-c2nnn[nH]2)cc1 [DuP753, 2-butyl-4-chloro-5-(hydroxymethyl)-1-[[2'-(1H-tetrazol-5-yl)biphenyl-4-yl]methyl]imidazole, reference compound] | – | – | 0.32 | 1.6 | 80 | – | – | 6.9 | 135 | – | – | an evident reduction of blood pressure was observed | without practical effect to blood pressure | the kidney disease was improved in a lower dose | clearly showed the action to depress the blood pressure
CCCCCN(Cc1ccc(C(=O)O)cc1)c1cc(C(=O)N2CCOCC2)ccc1N(C)C [Compound No. 252, 4-dimethylamino-3-[N-(4-carboxyphenyl)methyl]-n-amylaminobenzoic acid morpholide] | – | – | 0.28 | 1.7 | 73 | 0/5 | 0 | 7.0 | 200 | 34 | – | – | – | – | –
CCCCCN(C)c1c(NCc2ccc(C(=O)O)cc2)cc(S(=O)(=O)N2CCOCC2)cc1NC(=O)C(c1ccccc1)c1ccccc1 [Compound No. 598, 4-[[4-(N-n-amyl-N-methyl)amino-3-[(4-carboxylphenyl)methyl]amino-5-(diphenylacetamido)benzene]sulfonyl]morpholine] | – | – | 0.35 | 1.6 | 80 | 0/5 | 0 | 7.2 | 202 | 36 | – | – | – | – | –
